In US20250388589A1, “TRICYCLIC HETEROCYCLIC DERIVATIVES, COMPOSITIONS AND USES THEREOF” (Danatlas Pharmaceuticals Co., Ltd., priority 2022, published 2025):

Tests used:
[1] = target: hPARG (C-terminal His6-tag) (Homo sapiens (Human), UniProt Q86W56); test: PARG Enzymatic Activity Assay (HTRF); format: biochemical; settings: hPARG 65 pM final, biotinylated-NAD ribosylated PARP1 8 nM final
Procedure, shortened: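 E. coli-expressed enzyme (65 pM final) preincubated 60 min RT with compounds (10-point 4-fold dilution, duplicate) in 50 mM Tris pH 7.4, 3 mM EDTA, 1 mM DTT, 50 mM KCl, 0.01% Tween 20. Biotinylated-NAD ribosylated PARP1 substrate (8 nM final) reacted 10 min RT; Eu-streptavidin/anti-6HIS-XL665 HTRF read 665/620 nm after 60 min. IC50 from 4-parameter Hill fit.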

Kuramochi cell line = test: Cell Viability Assay (Cell Titer-Glo, 7 days); format: cell-based; settings: 168 h, Kuramochi cells, 7 days incubation, read-out: PARG Cell viability (IC50)
Procedure, shortened: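 Kuramochi cells in RPMI with 10% FBS, seeded at 400 cells/well, were treated with a 9-point 3-fold dilution series in duplicate for 7 days at 37 °C, 5% CO2. Viability by CellTiter-Glo luminescence, normalised to DMSO and medium-only controls; IC50 from 4-parameter Hill fit.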

hPARG (C-terminal His6-tag), sequence (Q86W56 whole entry): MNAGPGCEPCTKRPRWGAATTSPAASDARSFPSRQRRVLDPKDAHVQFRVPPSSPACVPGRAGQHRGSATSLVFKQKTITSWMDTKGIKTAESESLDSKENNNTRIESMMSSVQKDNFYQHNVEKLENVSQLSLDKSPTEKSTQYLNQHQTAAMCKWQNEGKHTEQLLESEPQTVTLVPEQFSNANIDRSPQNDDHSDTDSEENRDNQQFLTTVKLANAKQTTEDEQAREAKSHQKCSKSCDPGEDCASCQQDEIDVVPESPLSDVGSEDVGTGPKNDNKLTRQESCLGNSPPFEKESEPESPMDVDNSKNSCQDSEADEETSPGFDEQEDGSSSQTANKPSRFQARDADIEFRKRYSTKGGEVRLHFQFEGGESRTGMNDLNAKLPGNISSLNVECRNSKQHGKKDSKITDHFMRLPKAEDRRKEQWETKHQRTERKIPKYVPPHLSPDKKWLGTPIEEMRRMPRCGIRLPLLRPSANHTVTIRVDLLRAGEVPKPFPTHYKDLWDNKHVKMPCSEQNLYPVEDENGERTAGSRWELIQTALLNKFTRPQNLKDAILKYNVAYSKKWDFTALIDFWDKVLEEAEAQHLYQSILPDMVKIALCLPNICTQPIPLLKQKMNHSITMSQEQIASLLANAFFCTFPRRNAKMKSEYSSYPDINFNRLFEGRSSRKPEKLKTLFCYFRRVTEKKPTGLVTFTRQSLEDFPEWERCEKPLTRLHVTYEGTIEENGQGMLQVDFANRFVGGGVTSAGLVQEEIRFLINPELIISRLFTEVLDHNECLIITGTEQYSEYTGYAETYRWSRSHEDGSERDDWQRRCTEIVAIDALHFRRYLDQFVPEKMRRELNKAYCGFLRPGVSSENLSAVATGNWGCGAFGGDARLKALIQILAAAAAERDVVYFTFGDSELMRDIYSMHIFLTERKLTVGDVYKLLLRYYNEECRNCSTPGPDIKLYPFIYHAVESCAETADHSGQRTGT

Row | IC50 [1] [µM] | SMILES | IC50 (Kuramochi cell line) [µM]
1 | < 0.1 | COCCN(C)C(=O)N1CCC(c2ncnc3c2c2ccc(S(=O)(=O)NC4(C#N)CC4)cc2n3-c2nnc(C(F)F)s2)CC1 [Example 144, 4-(7-(N-(1-cyanocyclo-propyl)sulfamoyl)-9-(5-(difluoromethyl)-1,3,4-thiadiazol-2-yl)-9H-pyrimido[4,5-b]indol-4-yl)-N-(2-methoxyethyl)-N-methylpiperidine-1-carboxamide] | < 0.1
2 | 0.1 to 1 | CN(C)C(=O)N1CC=C(c2ccnc3c2c2ccc(S(=O)(=O)NC4(C)CC4)cc2n3-c2nnc(C(F)F)s2)CC1 [Example 194, 4-(9-(5-(Difluoromethyl)-1,3,4-thiadiazol-2-yl)-7-(N-(1-methylcyclopropyl)sulfamoyl)-9H-pyrido[2,3-b]indol-4-yl)-N,N-dimethyl-3,6-dihydropyridine-1(2H)-carboxamide] | 0.1 to 1
3 | < 0.1 | C[C@H]1CC(c2ncnc3c2c2ccc(S(=O)(=O)NC4(C#N)CC4)cc2n3-c2nnc(C(F)F)s2)CCN1 (stereo partly drawn) [Example 150, N-(1-Cyanocyclopropyl)-9-(5-(difluoromethyl)-1,3,4-thiadiazol-2-yl)-4-((2S)-2-methylpiperidin-4-yl)-9H-pyrimido[4,5-b]indole-7-sulfonamide] | 0.1 to 1
4 | < 0.1 | N#CC1(NS(=O)(=O)c2ccc3c4c(N5CCN(C(=O)C6CC6)CC5)ncnc4n(-c4nnc(C(F)F)s4)c3c2)CC1 [Example 2, N-(1-Cyanocyclopropyl)-4-(4-(cyclopropanecarbonyl)piperazin-1-yl)-9-(5-(difluoromethyl)-1,3,4-thiadiazol-2-yl)-9H-pyrimido[4,5-b]indole-7-sulfonamide] | < 0.1
5 | < 0.1 | N#CC1(NS(=O)(=O)c2ccc3c4c(N5CCN(C(=O)N6CCC6)CC5)ncnc4n(-c4nnc(C(F)F)s4)c3c2)CC1 [Example 63, 4-(4-(Azetidine-1-carbonyl)piperazin-1-yl)-N-(1-cyanocyclopropyl)-9-(5-(difluoromethyl)-1,3,4-thiadiazol-2-yl)-9H-pyrimido[4,5-b]indole-7-sulfonamide] | < 0.1
6 | < 0.1 | CC1(NS(=O)(=O)c2ccc3c4c(C5CCN(C(=O)N6CCOCC6)CC5)ncnc4n(-c4nnc(C(F)F)s4)c3c2)CC1 [Example 133, 9-(5-(difluoromethyl)-1,3,4-thiadiazol-2-yl)-N-(1-methylcyclopropyl)-4-(1-(morpholine-4-carbonyl)piperidin-4-yl)-9H-pyrimido[4,5-b]indole-7-sulfonamide] | < 0.1
7 | < 0.1 | CC(C)C(=O)N1CCC(c2ncnc3c2c2ccc(S(=O)(=O)NC4(C#N)CC4)cc2n3-c2nnc(C(F)F)s2)CC1 [Example 76, N-(1-Cyanocyclopropyl)-9-(5-(difluoromethyl)-1,3,4-thiadiazol-2-yl)-4-(1-isobutyrylpiperidin-4-yl)-9H-pyrimido[4,5-b]indole-7-sulfonamide] | < 0.1
8 | < 0.1 | CC(C)C(=O)N1C[C@@H](C)N(c2ncnc3c2c2ccc(S(=O)(=O)NC4(C)CC4)cc2n3-c2nnc(C(F)F)s2)C[C@@H]1C [Example 64, 9-(5-(Difluoromethyl)-1,3,4-thiadiazol-2-yl)-4-((2R,5S)-4-isobutyryl-2,5-dimethylpiperazin-1-yl)-N-(1-methylcyclopropyl)-9H-pyrimido[4,5-b]indole-7-sulfonamide] | < 0.1
9 | < 0.1 | N#CC1(NS(=O)(=O)c2ccc3c4c(N5C[C@H]6C[C@@H]5CO6)ncnc4n(-c4nnc(C(F)F)s4)c3c2)CC1 [Example 202, 4-((1R,4R)-2-Oxa-5-azabicyclo[2.2.1]heptan-5-yl)-N-(1-cyanocyclopropyl)-9-(5-(difluoromethyl)-1,3,4-thiadiazol-2-yl)-9H-pyrimido[4,5-b]indole-7-sulfonamide] | < 0.1
10 | < 0.1 | COC1CCN(c2ncnc3c2c2ccc(S(=O)(=O)NC4(C#N)CC4)cc2n3-c2nnc(C(F)F)s2)CC1 [Example 44, N-(1-Cyanocyclopropyl)-9-(5-(difluoromethyl)-1,3,4-thiadiazol-2-yl)-4-(4-methoxypiperidin-1-yl)-9H-pyrimido[4,5-b]indole-7-sulfonamide] | < 0.1
11 | 0.1 to 1 | N#CC1(NS(=O)(=O)c2ccc3c4c(N5CCN(c6ncccn6)CC5)ncnc4n(-c4nnc(C(F)F)s4)c3c2)CC1 [Example 18, N-(1-Cyanocyclopropyl)-9-(5-(difluoromethyl)-1,3,4-thiadiazol-2-yl)-4-(4-(pyrimidin-2-yl)piperazin-1-yl)-9H-pyrimido[4,5-b]indole-7-sulfonamide] | 0.1 to 1
12 | < 0.1 | CC(C)C(=O)N1CCC(c2ncnc3c2c2cc(F)c(S(=O)(=O)NC4(C#N)CC4)cc2n3-c2nnc(C(F)F)s2)CC1 [Example 90, N-(1-Cyanocyclopropyl)-9-(5-(difluoromethyl)-1,3,4-thiadiazol-2-yl)-6-fluoro-4-(1-isobutyrylpiperidin-4-yl)-9H-pyrimido[4,5-b]indole-7-sulfonamide] | < 0.1
13 | < 0.1 | N#CC1(NS(=O)(=O)c2ccc3c4c(C5=CCOCC5)ncnc4n(-c4nnc(C(F)F)s4)c3c2)CC1 [Example 78, N-(1-Cyanocyclopropyl)-9-(5-(difluoromethyl)-1,3,4-thiadiazol-2-yl)-4-(3,6-dihydro-2H-pyran-4-yl)-9H-pyrimido[4,5-b]indole-7-sulfonamide] | 0.1 to 1
14 | < 0.1 | CC(C)C(=O)N1CCC(c2ncnc3c2c2cc(F)c(S(=O)(=O)NC4(C)CC4)cc2n3-c2nnc(C(F)F)s2)CC1 [Example 148, 9-(5-(Difluoromethyl)-1,3,4-thiadiazol-2-yl)-6-fluoro-4-(1-isobutyrylpiperidin-4-yl)-N-(1-methylcyclopropyl)-9H-pyrimido[4,5-b]indole-7-sulfonamide] | < 0.1
15 | < 0.1 | C[C@H]1CN(c2ncnc3c2c2cc(F)c(S(=O)(=O)NC4(C#N)CC4)cc2n3-c2nnc(C(F)F)s2)CCN1C(=O)N(C)C [Example 46, (S)-4-(7-(N-(1-Cyanocyclopropyl)sulfamoyl)-9-(5-(difluoromethyl)-1,3,4-thiadiazol-2-yl)-6-fluoro-9H-pyrimido[4,5-b]indol-4-yl)-N,N,2-trimethylpiperazine-1-carboxamide] | < 0.1
16 | < 0.1 | CC(C)C(=O)N1CCC(c2ncnc3c2c2ccc(S(=O)(=O)NC4(C#N)CC4)cc2n3-c2nnc(C(F)F)s2)C[C@@H]1C (stereo partly drawn) [Example 151, N-(1-Cyanocyclopropyl)-9-(5-(difluoromethyl)-1,3,4-thiadiazol-2-yl)-4-((2S)-1-isobutyryl-2-methylpiperidin-4-yl)-9H-pyrimido[4,5-b]indole-7-sulfonamide] | < 0.1
17 | < 0.1 | COCC(=O)N1CCC(c2ncnc3c2c2ccc(S(=O)(=O)NC4(C#N)CC4)cc2n3-c2nnc(C(F)F)s2)CC1 [Example 117, N-(1-cyanocyclopropyl)-9-(5-(difluoromethyl)-1,3,4-thiadiazol-2-yl)-4-(1-(2-methoxyacetyl)piperidin-4-yl)-9H-pyrimido[4,5-b]indole-7-sulfonamide] | < 0.1
18 | < 0.1 | N#CC1(NS(=O)(=O)c2ccc3c4c(N5CC6CN(C(=O)C7COC7)CC6C5)ncnc4n(-c4nnc(C(F)F)s4)c3c2)CC1 (stereo not shown) [Example 71, N-(1-Cyanocyclopropyl)-9-(5-(difluoromethyl)-1,3,4-thiadiazol-2-yl)-4-(5-(oxetane-3-carbonyl)hexahydropyrrolo[3,4-c]pyrrol-2(1H)-yl)-9H-pyrimido[4,5-b]indole-7-sulfonamide] | 0.1 to 1
19 | < 0.1 | C[C@H]1CN(c2ncnc3c2c2ccc(S(=O)(=O)NC4(C#N)CC4)cc2n3-c2nnc(C(F)F)s2)CCN1C(=O)N(C)C [Example 37, (S)-4-(7-(N-(1-Cyanocyclopropyl)sulfamoyl)-9-(5-(difluoromethyl)-1,3,4-thiadiazol-2-yl)-9H-pyrimido[4,5-b]indol-4-yl)-N,N,2-trimethylpiperazine-1-carboxamide] | < 0.1
20 | < 0.1 | C[C@@H]1CN(c2ncnc3c2c2ccc(S(=O)(=O)NC4(C#N)CC4)cc2n3-c2nnc(C(F)F)s2)CCN1C(=O)C1CCC1 [Example 5, (R)-N-(1-Cyanocyclopropyl)-4-(4-(cyclobutanecarbonyl)-3-methylpiperazin-1-yl)-9-(5-(difluoromethyl)-1,3,4-thiadiazol-2-yl)-9H-pyrimido[4,5-b]indole-7-sulfonamide] | 0.1 to 1
21 | < 0.1 | CN1CCC(c2ncnc3c2c2ccc(S(=O)(=O)NC4(C#N)CC4)cc2n3-c2nnc(C(F)F)s2)CC1 [Example 146, N-(1-Cyanocyclopropyl)-9-(5-(difluoromethyl)-1,3,4-thiadiazol-2-yl)-4-(1-methylpiperidin-4-yl)-9H-pyrimido[4,5-b]indole-7-sulfonamide] | < 0.1
22 | < 0.1 | CC1(O)CCN(c2ncnc3c2c2ccc(S(=O)(=O)NC4(C#N)CC4)cc2n3-c2nnc(C(F)F)s2)CC1 [Example 48, N-(1-Cyanocyclopropyl)-9-(5-(difluoromethyl)-1,3,4-thiadiazol-2-yl)-4-(4-hydroxy-4-methylpiperidin-1-yl)-9H-pyrimido[4,5-b]indole-7-sulfonamide] | < 0.1
23 | 0.1 to 1 | N#CC1(NS(=O)(=O)c2ccc3c4c(N5CCC(O)CC5)ccnc4n(-c4nnc(C(F)F)s4)c3c2)CC1 [Example 80, N-(1-Cyanocyclopropyl)-9-(5-(difluoromethyl)-1,3,4-thiadiazol-2-yl)-4-(4-hydroxypiperidin-1-yl)-9H-pyrido[2,3-b]indole-7-sulfonamide] | 0.1 to 1
